What all share (type): binding
Test [1] concerns the target Penicillium antifungal protein (PAF) (Penicillium chrysogenum, UniProt Q01701). The test can be described thus: ITC; X-ray cocrystal structure; NMR. (In general: Isothermal titration calorimetry measures the heat released or taken up as one component is titrated into another.)
Test [2] addresses T1, cytochrome c (cyt c) (Saccharomyces cerevisiae, UniProt P00044).
T1 construct: gene CYC1
As to the kind of experiment: ITC; X-ray cocrystal structure. Particulars: read-out: apparent dissociation constant; cited from earlier work.

For test [3], the target named is T1, cytochrome c (cyt c). The test can be described thus: ITC; X-ray cocrystal structure; NMR. Particulars: read-out: apparent dissociation constant; cited from earlier work.
Test [4] concerns the target T1, cytochrome c (cyt c). The test can be described thus: ITC; X-ray cocrystal structure; NMR; SECMALS.

T1 sequence (P00044 2-109): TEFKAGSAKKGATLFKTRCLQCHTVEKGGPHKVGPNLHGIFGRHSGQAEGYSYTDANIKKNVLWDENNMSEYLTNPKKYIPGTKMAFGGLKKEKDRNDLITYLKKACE
Penicillium antifungal protein (PAF), sequence (Q01701 38-92 limits assumed): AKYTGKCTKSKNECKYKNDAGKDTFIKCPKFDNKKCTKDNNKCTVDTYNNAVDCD

`O=S(=O)(O)c1cc2c(O)c(c1)Cc1cc(S(=O)(=O)O)cc(c1O)Cc1cc(S(=O)(=O)O)cc(c1O)Cc1cc(S(=O)(=O)O)cc(c1O)Cc1cc(S(=O)(=O)O)cc(c1O)Cc1cc(S(=O)(=O)O)cc(c1O)C2` [sulfonato-calix[6]arene]: the binding affinity result in test [1] is recorded as “Micromolar binding affinities were determined by ITC”. Turning to `O=S(=O)(O)c1cc2c(O)c(c1)Cc1cc(S(=O)(=O)O)cc(c1O)Cc1cc(S(=O)(=O)O)cc(c1O)Cc1cc(Br)cc(c1O)C2` [bromo-sulfonato-calix[4]arene], at cytochrome c (cyt c) [2], the Kd is 20 µM. `O=S(=O)(O)c1cc2c(O)c(c1)Cc1cc(S(=O)(=O)O)cc(c1O)Cc1cc(S(=O)(=O)O)cc(c1O)Cc1cc(S(=O)(=O)O)cc(c1O)C2` [sulfonato-calix[4]arene]: the binding affinity result in test [1] is on record as “Micromolar binding affinities were determined by ITC”. The Kd on cytochrome c (cyt c) [3] is 30 µM. On to `O=P(O)(O)c1cc2c(O)c(c1)Cc1cc(P(=O)(O)O)cc(c1O)Cc1cc(P(=O)(O)O)cc(c1O)Cc1cc(P(=O)(O)O)cc(c1O)Cc1cc(P(=O)(O)O)cc(c1O)Cc1cc(P(=O)(O)O)cc(c1O)C2` [phosphonato-calix[6]arene], for which the binding affinity entry on cytochrome c (cyt c) [4] was “the ITC data indicated a binding affinity in the low micromolar range”.

These data come from paper PMC9350911, “Protein–Calixarene Complexation: From Recognition to Assembly” (Accounts of Chemical Research, 2022).
